Assay results reported in US20240091366A1, “NOVEL ACID-SENSITIVE APTAMER TRIPTOLIDE CONJUGATE AND APPLICATIONS” (priority 2022, published 2024).
Several values for one entry are separate records, joined by “and”; a condition that tells them apart may be missing. Equal values may be shown once.

Tests used:
Assay in all cases: MTT assay, cell proliferation inhibition
Type in all cases: cell-based
[1] = tested on: pancreatic cancer cell line PANC-1; details: PANC-1, 200.0 nM, 48 h, samples 1-3; 0.2 µM
Description: (§1) Material: aptamer triptolide conjugate (AS1411-TP). Triptolide (TP) was provided by Shanghai Yaji Biotechnology Co. Ltd; aptamer (AS1411) was obtained from Chengdu Pilot Drug Development Co. Ltd; trypsin, thiazolyl blue (MTT) (Biofroxx, Germany); dimethyl sulfoxide (DMSO) (MP Biomedicals, France); fetal bovine serum (FBS) (Newzerum, New Zealand); DMEM medium, RPMI1640 medium, Petri dishes, 96-well plates (Corning, USA); colon cancer cells HCT116, breast cancer cells MDA-MB-231, non-small-cell lung cancer cells A549, pancreatic cancer cells PANC-1, and hepatocellular carcinoma cells HepG2 were purchased from the Shanghai Cell Bank of the Chinese Academy of Sciences and preserved in the laboratory.
(§2) Take the tumor cells HCT116, MDA-MB-231, A549, PANC-1 and HepG2 cell lines from the liquid nitrogen tank, place them in a 37° C. water bath, wait for the frozen cells to melt into cell suspension, centrifuge the cells at 1000 r/min for 3 min, discard the supernatant, add 1 ml of fresh complete medium containing 10% fetal bovine serum and 1% double antibody to mix the cells, then add 5 ml of medium, gently and repeatedly blowing the cells with a pipette gun to make them mix well. Then add 5 ml of medium, blow the cells gently and repeatedly with a pipette gun to mix them well, and finally transfer the cell suspension to a […] and label the cell name, cell number, date of resuscitation and the operator's name, and place it in a cell culture incubator for cultivation. (HCT116, PANC-1 and HepG2 cell lines were cultured in DMEM medium, while MDA-MB-231 cell line and A549 cell line were cultured in RPMI1640 medium).
(§3) Take HCT116, MDA-MB-231, A549, PANC-1, HepG2 cells with good growth status, remove the medium, add 1 ml of sterile PBS to wash, add 1.5 ml of trypsin to digest the cells, about 2 min later the cells become round and fall off, add 1.5 ml of medium to terminate the digestion, transfer it to centrifugal tube, centrifuge at 1000 r/min for 3 min, discard the supernatant, add 1 ml of fresh medium to resuspend, then add fresh medium for 1:3 distribution to other culture dishes, and label the date of transmission and the number of generations. Place in the cell culture incubator for cultivation.
(§4) Take HCT116, MDA-MB-231, A549, PANC-1, HepG2 cells with good growth status, by the same operation as the cell passaging experiment, after cell resuspension, cell counting with hemocyte counting plate, with 2500 cells/well, plant in 96-well plate, after 24 h of cell culture, remove the original medium, add medium containing different concentrations of drugs and continue to cultivate for 48 hours. After 24 h of cell culture, the original medium was removed and the medium containing different concentrations of drugs was added to continue the culture for 48 hours. […] The above steps were repeated three times.

[2] = tested on: breast cancer cell line MDA-MB-231; details: 48 h
Description: as §1, §2, §3, §4

[3] = tested on: colon cancer cell line HCT116; details: 48 h
Description: as §1, §2, §3, §4

[4] = tested on: lung adenocarcinoma cell line A549; details: 48 h
Description: as §1, §2, §3, §4

Structure (SMILES): CC(C)[C@]12O[C@H]1[C@@H]1O[C@]13[C@]1(O[C@H]1C[C@H]1C4=C(CC[C@@]13C)C(=O)OC4)[C@@H]2O [TP, Triptolide]
- cell proliferation inhibition rate [1]: 98.8589 and 97.2313
- inhibition at 0.0031 µM ([2]; Homo sapiens, MDA-MB-231, 48 h, MDA-MB-231, 3.1 nM, samples 1-3, read-out: cell proliferation inhibition rate): 14.6%
- inhibition at 0.0063 µM ([2]; Homo sapiens, MDA-MB-231, 48 h, MDA-MB-231, 6.3 nM, samples 1-3, read-out: cell proliferation inhibition rate): 25.7%
- inhibition at 0.0125 µM ([2]; Homo sapiens, MDA-MB-231, 48 h, MDA-MB-231, 12.5 nM, samples 1-3, read-out: cell proliferation inhibition rate): 31.7%
- inhibition at 0.025 µM ([2]; Homo sapiens, MDA-MB-231, 48 h, MDA-MB-231, 25.0 nM, samples 1-3, read-out: cell proliferation inhibition rate): 42.1%
- inhibition at 0.05 µM ([2]; Homo sapiens, MDA-MB-231, 48 h, MDA-MB-231, 50.0 nM, samples 1-3, read-out: cell proliferation inhibition rate): 71.5%
- inhibition at 0.1 µM ([2]; Homo sapiens, MDA-MB-231, 48 h, MDA-MB-231, 100.0 nM, samples 1-3, read-out: cell proliferation inhibition rate): 83%
- inhibition at 0.2 µM ([2]; Homo sapiens, MDA-MB-231, 48 h, MDA-MB-231, 200.0 nM, samples 1-3, read-out: cell proliferation inhibition rate): 98.1%
- IC50 ([2]; Homo sapiens, breast cancer cells MDA-MB-231, MTT): 22.4 ± 0.24 nM
- cell proliferation inhibition rate ([2]; MDA-MB-231, 3.1 nM, samples 1-3, 0.0031 µM): 11.4171 and 14.3285
- cell proliferation inhibition rate ([2]; MDA-MB-231, 6.3 nM, samples 1-3, 0.0063 µM): 23.5657 and 26.9811
- cell proliferation inhibition rate ([2]; MDA-MB-231, 12.5 nM, samples 1-3, 0.0125 µM): 36.7429 and 35.2571
- cell proliferation inhibition rate ([2]; MDA-MB-231, 25.0 nM, samples 1-3, 0.025 µM): 49.4400 and 45.9563
- cell proliferation inhibition rate ([2]; MDA-MB-231, 50.0 nM, samples 1-3, 0.05 µM): 73.2000 and 76.9811
- cell proliferation inhibition rate ([2]; MDA-MB-231, 100.0 nM, samples 1-3, 0.1 µM): 86.0800 and 88.6718
- cell proliferation inhibition rate ([2]; MDA-MB-231, 200.0 nM, samples 1-3, 0.2 µM): 94.2971 and 93.2186
- cell proliferation inhibition rate ([3]; HCT116, 6.3 nM, samples 1-3, 0.0063 µM): 20.0440 and 13.1188
- cell proliferation inhibition rate ([3]; HCT116, 12.5 nM, samples 1-3, 0.0125 µM): 43.4099 and 47.0957
- cell proliferation inhibition rate ([3]; HCT116, 25.0 nM, samples 1-3, 0.025 µM): 66.2973 and 50.7426
- cell proliferation inhibition rate ([3]; HCT116, 50.0 nM, samples 1-3, 0.05 µM): 79.2127 and 76.2156
- cell proliferation inhibition rate ([3]; HCT116, 100.0 nM, samples 1-3, 0.1 µM): 80.3075 and 88.8251
- cell proliferation inhibition rate ([3]; HCT116, 200.0 nM, samples 1-3, 0.2 µM): 98.8058 and 98.5677
- inhibition at 0.0063 µM ([3]; Homo sapiens, HCT-116, 48 h, HCT116, 6.3 nM, samples 1-3, read-out: cell proliferation inhibition rate): 24.7%
- inhibition at 0.0125 µM ([3]; Homo sapiens, HCT-116, 48 h, HCT116, 12.5 nM, samples 1-3, read-out: cell proliferation inhibition rate): 42.1%
- inhibition at 0.025 µM ([3]; Homo sapiens, HCT-116, 48 h, HCT116, 25.0 nM, samples 1-3, read-out: cell proliferation inhibition rate): 54.9%
- inhibition at 0.05 µM ([3]; Homo sapiens, HCT-116, 48 h, HCT116, 50.0 nM, samples 1-3, read-out: cell proliferation inhibition rate): 75.6%
- inhibition at 0.1 µM ([3]; Homo sapiens, HCT-116, 48 h, HCT116, 100.0 nM, samples 1-3, read-out: cell proliferation inhibition rate): 83%
- inhibition at 0.2 µM ([3]; Homo sapiens, HCT-116, 48 h, HCT116, 200.0 nM, samples 1-3, read-out: cell proliferation inhibition rate): 97.2%
- IC50 ([3]; Homo sapiens, HCT-116, colon cancer cells HCT116, MTT): 18.88 ± 0.13 nM
- cell proliferation inhibition rate ([4]; A549, 6.3 nM, samples 1-3, 0.0063 µM): 16.7429 and 15.2571
- cell proliferation inhibition rate ([4]; A549, 12.5 nM, samples 1-3, 0.0125 µM): 29.4400 and 25.9563
- cell proliferation inhibition rate ([4]; A549, 25.0 nM, samples 1-3, 0.025 µM): 43.2000 and 46.9811
- cell proliferation inhibition rate ([4]; A549, 50.0 nM, samples 1-3, 0.05 µM): 66.0800 and 68.6718
- cell proliferation inhibition rate ([4]; A549, 100.0 nM, samples 1-3, 0.1 µM): 84.2971 and 83.2186
- cell proliferation inhibition rate ([4]; A549, 200.0 nM, samples 1-3, 0.2 µM): 97.0057 and 96.3263
- inhibition at 0.0063 µM ([4]; Homo sapiens, A549, 48 h, A549, 6.3 nM, samples 1-3, read-out: cell proliferation inhibition rate): 13.7%
- inhibition at 0.0125 µM ([4]; Homo sapiens, A549, 48 h, A549, 12.5 nM, samples 1-3, read-out: cell proliferation inhibition rate): 22.1%
- inhibition at 0.025 µM ([4]; Homo sapiens, A549, 48 h, A549, 25.0 nM, samples 1-3, read-out: cell proliferation inhibition rate): 41.5%
- inhibition at 0.05 µM ([4]; Homo sapiens, A549, 48 h, A549, 50.0 nM, samples 1-3, read-out: cell proliferation inhibition rate): 63%
- inhibition at 0.1 µM ([4]; Homo sapiens, A549, 48 h, A549, 100.0 nM, samples 1-3, read-out: cell proliferation inhibition rate): 80.1%
- inhibition at 0.2 µM ([4]; Homo sapiens, A549, 48 h, A549, 200.0 nM, samples 1-3, read-out: cell proliferation inhibition rate): 99.2%
- IC50 ([4]; Homo sapiens, lung adenocarcinoma cells A549, MTT): 30.23 ± 0.17 nM
